Test results taken from the supplement of paper PMC10307832.

Tests used:
Assay in all cases: relative viability (nuclei count vs DMSO), 5 days (fraction); higher = more cells survive
[1] = test system: NCI-H2228
How it was run: (§1)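 Relative viability divides the nuclei count in treated wells by that in vehicle wells. Lung cancer cell lines were seeded in 1536-well plates, dosed by pin tool the next day, and fixed and stained after 5 days in one step with final 0.05% Triton X-100, 1% formaldehyde and 1 ug/ml Hoechst. Dosing was a single drug or a fixed anchor-drug dose plus five library-drug doses (not always all listed) in √10 steps, and values are medians of duplicate plates imaged at 4×.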

[2] = test system: SW 1573
How it was run: as §1

[3] = test system: HOP-62
How it was run: as §1

[4] = test system: NCI-H2126
How it was run: as §1

[5] = test system: NCI-H1792
How it was run: as §1

[6] = test system: LOU-NH91
How it was run: as §1

[7] = test system: NCI-H647
How it was run: as §1

[8] = test system: NCI-H1975
How it was run: as §1

[9] = test system: LC-2-ad
How it was run: as §1

[10] = test system: NCI-H460
How it was run: as §1

[11] = test system: SK-LU-1
How it was run: as §1

[12] = test system: NCI-H1734
How it was run: as §1

[13] = test system: PC-3 [JPC-3]
How it was run: as §1

[14] = test system: HCC-15
How it was run: as §1

[15] = test system: A-427
How it was run: as §1

[16] = test system: HCC-78
How it was run: as §1

[17] = test system: NCI-H1915
How it was run: as §1

[18] = test system: NCI-H1755
How it was run: as §1

[19] = test system: RERF-LC-KJ
How it was run: as §1

[20] = test system: NCI-H358
How it was run: as §1

[21] = test system: LXF-289
How it was run: as §1

[22] = test system: NCI-H2347
How it was run: as §1

CC1(C)CCC(c2ccc(Cl)cc2)=C(CN2CCN(c3ccc(C(=O)NS(=O)(=O)c4ccc(N[C@H](CCN5CCOCC5)CSc5ccccc5)c(S(=O)(=O)C(F)(F)F)c4)cc3)CC2)C1 [Navitoclax] + CS(=O)(=O)N1CCN(Cc2cc3nc(-c4cccc5[nH]ncc45)nc(N4CCOCC4)c3s2)CC1 [Pictilisib] (partner 1 µM)
relative viability ([1]; first compound 0.005 µM): 0.431 | relative viability ([1]; first compound 0.01581 µM): 0.526 | relative viability ([1]; first compound 0.05 µM): 0.367 | relative viability ([1]; first compound 0.1581 µM): 0.366 | relative viability ([1]; first compound 0.5 µM): 0.304 | relative viability ([2]; first compound 0.005 µM): 0.466 | relative viability ([2]; first compound 0.01581 µM): 0.54 | relative viability ([2]; first compound 0.05 µM): 0.464 | relative viability ([2]; first compound 0.1581 µM): 0.389 | relative viability ([2]; first compound 0.5 µM): 0.503 | relative viability ([3]; first compound 0.005 µM): 0.803 | relative viability ([3]; first compound 0.01581 µM): 0.921 | relative viability ([3]; first compound 0.05 µM): 0.5 | relative viability ([3]; first compound 0.1581 µM): 0.769 | relative viability ([3]; first compound 0.5 µM): 1.17 | relative viability ([4]; first compound 0.005 µM): 0.529 | relative viability ([4]; first compound 0.01581 µM): 0.507 | relative viability ([4]; first compound 0.05 µM): 0.493 | relative viability ([4]; first compound 0.1581 µM): 0.49 | relative viability ([4]; first compound 0.5 µM): 0.451 | relative viability ([5]; first compound 0.005 µM): 0.307 | relative viability ([5]; first compound 0.01581 µM): 0.283 | relative viability ([5]; first compound 0.05 µM): 0.163 | relative viability ([5]; first compound 0.1581 µM): 0.285 | relative viability ([5]; first compound 0.5 µM): 0.29 | relative viability ([6]; first compound 0.005 µM): 0.51 | relative viability ([6]; first compound 0.01581 µM): 0.513 | relative viability ([6]; first compound 0.05 µM): 0.556 | relative viability ([6]; first compound 0.1581 µM): 0.496 | relative viability ([6]; first compound 0.5 µM): 0.393 | relative viability ([7]; first compound 0.005 µM): 0.539 | relative viability ([7]; first compound 0.01581 µM): 0.396 | relative viability ([7]; first compound 0.05 µM): 0.385 | relative viability ([7]; first compound 0.1581 µM): 0.422 | relative viability ([7]; first compound 0.5 µM): 0.453 | relative viability ([8]; first compound 0.005 µM): 0.295 | relative viability ([8]; first compound 0.01581 µM): 0.32 | relative viability ([8]; first compound 0.05 µM): 0.304 | relative viability ([8]; first compound 0.1581 µM): 0.287 | relative viability ([8]; first compound 0.5 µM): 0.235 | relative viability ([9]; first compound 0.005 µM): 0.614 | relative viability ([9]; first compound 0.01581 µM): 0.654 | relative viability ([9]; first compound 0.05 µM): 0.324 | relative viability ([9]; first compound 0.1581 µM): 0.447 | relative viability ([9]; first compound 0.5 µM): 0.38 | relative viability ([10]; first compound 0.005 µM): 0.348 | relative viability ([10]; first compound 0.01581 µM): 0.419 | relative viability ([10]; first compound 0.1581 µM): 0.326 | relative viability ([10]; first compound 0.5 µM): 0.334 | relative viability ([11]; first compound 0.005 µM): 0.557 | relative viability ([11]; first compound 0.01581 µM): 0.725 | relative viability ([11]; first compound 0.05 µM): 0.499 | relative viability ([11]; first compound 0.1581 µM): 0.522 | relative viability ([11]; first compound 0.5 µM): 0.483 | relative viability ([12]; first compound 0.005 µM): 0.455 | relative viability ([12]; first compound 0.01581 µM): 0.481 | relative viability ([12]; first compound 0.1581 µM): 0.49 | relative viability ([12]; first compound 0.5 µM): 0.465 | relative viability ([13]; first compound 0.005 µM): 0.648 | relative viability ([13]; first compound 0.01581 µM): 0.701 | relative viability ([13]; first compound 0.05 µM): 0.87 | relative viability ([13]; first compound 0.1581 µM): 0.678 | relative viability ([13]; first compound 0.5 µM): 0.75 | relative viability ([14]; first compound 0.005 µM): 0.733 | relative viability ([14]; first compound 0.01581 µM): 0.769 | relative viability ([14]; first compound 0.05 µM): 0.614 | relative viability ([14]; first compound 0.1581 µM): 0.726 | relative viability ([14]; first compound 0.5 µM): 0.667 | relative viability ([15]; first compound 0.005 µM): 0.675 | relative viability ([15]; first compound 0.01581 µM): 0.675 | relative viability ([15]; first compound 0.05 µM): 0.659 | relative viability ([15]; first compound 0.1581 µM): 0.753 | relative viability ([15]; first compound 0.5 µM): 0.799 | relative viability ([16]; first compound 0.005 µM): 0.184 | relative viability ([16]; first compound 0.01581 µM): 0.261 | relative viability ([16]; first compound 0.1581 µM): 0.232 | relative viability ([16]; first compound 0.5 µM): 0.205 | relative viability ([17]; first compound 0.005 µM): 0.893 | relative viability ([17]; first compound 0.01581 µM): 1.02 | relative viability ([17]; first compound 0.05 µM): 1.01 | relative viability ([17]; first compound 0.1581 µM): 0.933 | relative viability ([17]; first compound 0.5 µM): 0.902 | relative viability ([18]; first compound 0.005 µM): 0.425 | relative viability ([18]; first compound 0.01581 µM): 0.434 | relative viability ([18]; first compound 0.05 µM): 0.252 | relative viability ([18]; first compound 0.1581 µM): 0.406 | relative viability ([18]; first compound 0.5 µM): 0.352 | relative viability ([19]; first compound 0.005 µM): 0.446 | relative viability ([19]; first compound 0.01581 µM): 0.55 | relative viability ([19]; first compound 0.05 µM): 0.589 | relative viability ([19]; first compound 0.1581 µM): 0.476 | relative viability ([19]; first compound 0.5 µM): 0.568 | relative viability ([20]; first compound 0.005 µM): 0.347 | relative viability ([20]; first compound 0.01581 µM): 0.352 | relative viability ([20]; first compound 0.05 µM): 0.307 | relative viability ([20]; first compound 0.1581 µM): 0.379 | relative viability ([20]; first compound 0.5 µM): 0.336 | relative viability ([21]; first compound 0.005 µM): 0.821 | relative viability ([21]; first compound 0.01581 µM): 0.872 | relative viability ([21]; first compound 0.05 µM): 0.737 | relative viability ([21]; first compound 0.1581 µM): 0.799 | relative viability ([21]; first compound 0.5 µM): 0.768 | relative viability ([22]; first compound 0.005 µM): 0.63 | relative viability ([22]; first compound 0.01581 µM): 0.702 | relative viability ([22]; first compound 0.05 µM): 0.649 | relative viability ([22]; first compound 0.1581 µM): 0.395 | relative viability ([22]; first compound 0.5 µM): 0.734
